Here are results for 3 molecules from paper PMC7699247 (Antibiotics, 2020).

For experiment [1], the target named is T1, membrane-bound E. coli F1F0-ATPase (Escherichia coli, UniProt P0ABB4). Put plainly: biochemical. Also noted: endogenous in cells; host or cells: Escherichia coli culture; crude membrane pellet after EDTA, freeze-thaw, sonication and centrifugation; species or system Escherichia coli (ATCC 25922). The procedure:
The supernatant is then removed.
Assays for each phosphate concentration were done in triplicate.
All tests were performed in triplicate.
IC50 values were determined using the PRISM® 5.04 (GraphPad software, San Diego, CA, USA) software, from a dose-response curve established by drawing the percentage of enzymatic activity (%) at different concentrations of the inhibitor expressed in terms of a log (inhibitor) (μM).
Different volumes of the stock solution of venom prepared in the buffer tris-HCl (pH = 8.5; 50 mM) are added to the reaction medium containing the transmembrane enzyme followed by ATP at 100 μM. […] The reaction is then stopped by the addition of 1% SDS (v/v). […] All assays were performed in triplicate.
Different volumes of the stock solution of phospholipase A2 are added to the reaction medium containing the isolated membrane-bound enzyme followed by ATP at 100 μM.
The effect of melittin on the membrane-bound F1F0-ATPase is studied as described in Section 4.7. Different volumes of the stock solution of melittin are added to the reaction medium containing the enzyme followed by ATP at 100 μM. […] The reaction is then stopped using a solution of 1% SDS (v/v). […] IC50 values were obtained from the dose-response curve using PRISM® 5.04 software. All assays were done in triplicate.

The target of experiment [2] is T1, membrane-bound E. coli F1F0-ATPase. Also noted: endogenous in cells; host or cells: Escherichia coli culture; crude membrane pellet after EDTA, freeze-thaw, sonication and centrifugation. The note with it: literature value, ref [7]; cited from earlier work. From the text:
Figure 2 (a) Dose-response curve representing the enzymatic activity (%) of E. coli F1F0-ATPase as a function of the log of the concentration of thymoquinone, quercetin and melittin, respectively. Error bars show the standard deviation obtained from experiments done in triplicate; (b) Comparison between the IC50 values of the reference inhibitors obtained by the developed method and from the literature. […] Good repeatabilities were obtained with relative standard deviations (RSD) below 6% and R^2 > 0.99. Likewise, melittin is found to be a strong potent inhibitor of E. coli F1F0-ATPase with its low IC50 value in the micromolar range.

The target is the same in experiment [3]. Nature of the experiment: Combination effect of PLA2 and melittin on membrane-bound E. coli F1F0-ATPase. The note with it: read-out: remaining enzymatic activity, melittin alone.

Read-outs that look alike come from different tables or passages of the source.

For orientation: IC50 means the midpoint of a concentration-inhibition curve. In the case of `O=c1c(O)c(-c2ccc(O)c(O)c2)oc2cc(O)cc(O)c12` [Quercetin, quercetin], the IC50 is 30 ± 1.5 µM in experiment [1] (read-out: IC50) and 33 µM in experiment [2].

Turning to `CC1=CC(=O)C(C(C)C)=CC1=O` [Thymoquinone, thymoquinone], the IC50 in experiment [1] (read-out: IC50) was 57.5 ± 2.99 µM.

The remaining activity is the share of the control activity or signal that is left under treatment. In turn, `CC[C@H](C)[C@H](NC(=O)CN)C(=O)NCC(=O)N[C@@H](C)C(=O)N[C@H](C(=O)N[C@@H](CC(C)C)C(=O)N[C@@H](CCCCN)C(=O)N[C@H](C(=O)N[C@@H](CC(C)C)C(=O)N[C@H](C(=O)N[C@H](C(=O)NCC(=O)N[C@@H](CC(C)C)C(=O)N1CCC[C@H]1C(=O)N[C@@H](C)C(=O)N[C@@H](CC(C)C)C(=O)N[C@H](C(=O)N[C@@H](CO)C(=O)N[C@@H](Cc1c[nH]c2ccccc12)C(=O)N[C@H](C(=O)N[C@@H](CCCCN)C(=O)N[C@@H](CCCNC(=N)N)C(=O)N[C@@H](CCCCN)C(=O)N[C@@H](CCCNC(=N)N)C(=O)N[C@@H](CCC(N)=O)C(=O)N[C@@H](CCC(N)=O)C(N)=O)[C@@H](C)CC)[C@@H](C)CC)[C@@H](C)O)[C@@H](C)O)C(C)C)C(C)C` [melittin] had an IC50 in experiment [1] of 9.03 ± 0.27 µM. For the same molecule, in experiment [1] (plateau of concentration curve, ATP 100 μM, 40 min, 37 °C, pH 8.5, triplicate), the maximum inhibition entry is listed as “about 80%”. The remaining activity at 9 µM in experiment [3] amounted to 51.7%.
